The text below walks through data of patent US10376486B2, “Compositions and methods for reactivating latent viral infections” (priority 2014, dated 2019).

Assay [1] concerns PEP005-induced HIV reactivation in J-Lat A1 cells. Nature of the assay: Suppression of PEP005-induced HIV reactivation in J-Lat A1 cells (GFP expression by RT-qPCR). Type of assay: cell-based. As to conditions: 6 nM PEP005, PKC inhibitor 1, 2 or 5 μM, Bay 11-7082 2.5 μM. How it is done:
FIG. 4: PEP005-induced HIV reactivation is mediated through PKCδ/θ-IκBα/ε-NF-κB signaling. (A) PEP005-induced HIV reactivation is suppressed by inhibition of the PKCδ/θ. J-Lat A1 cells were treated with 6 nM of PEP005 in the presence of 1, 2 or 5 μM of PKC inhibitor (PKCθ/δ inhibitor; Milipore/Calbiochem (539649)) and evaluated for GFP expression by RT-qPCR. (B) NF-κB inhibition partially suppresses PEP005-induced HIV reactivation in J-Lat A1 cells. J-Lat A1 cells were treated with 6 nM of PEP005 in the presence of 2.5 μM Bay 11-7082, an NF-κB inhibitor, and were evaluated for GFP expression by RT-qPCR. (C) J-Lat A1 cells were treated with PEP005 or alternatively with PKC inhibitor alone or in the presence of PEP005 and the relative binding of NF-κB to the HIV LTR was determined using ChIP-qPCR.
Real-time PCR analysis of GFP or HIV gene expression: Total RNA was isolated from J-Lat A1 cells or U1 cells using the RNeasy Kit (Qiagen) followed by digestion with DNase I (Invitrogen). First strand cDNA was synthesized using Superscript II (Invitrogen). Real-time PCR (TaqMan) was performed on a ViiA 7 detector using the following primer/probe set: for J-Lat A1 cells, primer 1: 5′-[…]-3′ (SEQ ID NO:5), primer 2: 5′-[…]-3 ‘ (SEQ ID NO:6), probe 5’-FAM CTACAAGACCC G[…]-3′ (SEQ ID NO:7), for U1 cells HIV 5′ LTR primers/probe were used (see above). […]
A general note: In qPCR the cycle at which signal appears reflects the starting amount.

In assay [2] the test system is latent HIV in J-Lat A1 cells. Kind of assay: HIV latency reactivation in J-Lat A1 cells (GFP expression by flow cytometry). It counts as cell-based. The following applies: GFP, 24 h, PEP005 2-40 nM, GSK343 2 μM. As to the method:
FIG. 1: PEP005 induces reactivation of HIV latency in vitro. J-Lat A1 cells were exposed to different concentrations of PEP005 and virus reactivation was measured by GFP expression using flow cytometry. Cell viability was determined by Live/Dead dye staining. (A) Chemical Structure of PEP005. […] (D) PEP005 potently reactivates latent HIV in cell lines compared with other LRAs. J-Lat A1 cells were treated with 10 nM PEP005, 500 nM SAHA, 2 μM JQ1, 2 μM GSK343, 10 ng/ml TNF, 2 μM Prostratin, or 5 ng/ml PMA for 24 hours and the percentage of GFP expression was evaluated using flow cytometry. *, p<0.05; **, p<0.01.
FIG. 2: PEP005 synergizes with other latency reversing agents in reactivating latent HIV. (A) J-Lat A1 cells were treated with 5 ng/ml PMA, 6 nM PEP005, 500 nM SAHA, 2 μM JQ1, 2 μM GSK343, or 10 μM Prostratin alone or in combination with 6 nM PEP005 for 24 hours and the percentage of GFP expressing cells was determined using flow cytometry. **, p<0.01; *, p<0.05 compared with control treatment; **, p<0.01; *, p<0.05 compared with PEP005 treatment alone. (B) The U1 cells were treated with 5 ng/ml PMA, 6 nM PEP005, 500 nM SAHA, 2 μM JQ1, or 2 μM GSK343, alone or in combination with 6 nM PEP005 for 24 hours and the HIV transcription was evaluated using RT-qPCR. Numbers indicate fold-increase over the control. **, p<0.01; *, p<0.05 compared with control treatment; **, p<0.01; *, p<0.05 compared with PEP005 treatment alone. […] The Bliss independence model was utilized for calculation of synergy for LRA combinations. Dotted horizontal line signifies pure additive effect (Δfaxy=0). Synergy is defined as Δfaxy>0 while Δfaxy<0 indicates antagonism. Statistical significance was determined using a one tailed ratio t-test comparing predicted and observed drug combination effects. *p<0.05; **p<0.01.
J-Lat A1 cells (harboring a single copy of latent HIV LTR and one copy of green fluorescent protein gene under the HIV LTR control) or U1 cells (harboring two latent HIV genomes with defective Tat gene) were cultured in RPMI1640 medium with 10% fetal bovine serum (FBS) and 1% Pen/strep in a 37° C. incubator containing 5% CO2 [24,31]. Both of the cell lines were obtained from NIH AIDS Reagent Program. For reactivation of HIV LTR, cells were treated with PMA (Sigma), JQ1 (Biovision), Prostatin (Sigma), SAHA (Santa Cruz), TNF-α (BD), GSK343 (Sigma), or PEP005 (Tocris Bioscience) for 24 h. HIV reactivation was quantified by GFP expression using flow cytometry and the data were analyzed using FlowJo Software for J-Lat A1 cells, or by quantitative RT-PCR (RT-qPCR) for J-Lat A1 and U1 cells. Cell viability was evaluated using Live/Dead dye (Life Technologies) by flow cytometry. So far, there is not a single in vitro cell culture model available that captures all the features of HIV latency. However, PKC agonists seem to reactivate latent HIV in all the cell culture models of viral latency. Similar to other J-Lat cell lines, the J-Lat A1 clone has been widely used by researchers for HIV latency studies. The T-cell-derived J-Lat A1 cells harbor one copy of a construct containing a Tat and a green fluorescent protein (GFP) gene framed by the 5′ and 3′ HIV LTR [32]. The J-Lat A1 cells also contain the TAR loop located within the R region of HIV LTR (nt +1 to +60), which provides an opportunity for Tat-TAR interactions for the modulation of transcription and transcriptional elongation. […]

Assay [3] relates to PKCδ/θ-IκBα/ε-NF-κB signaling. The following applies: IngB treatment; cited from earlier work.

Molecules are shown by their SMILES. Entries after “also recorded” stand apart in the source; their conditions may differ.

Consider `Cc1ccc(S(=O)(=O)/C=C/C#N)cc1` [Bay-11-7082], for which the “reduction of PEP005-induced latent HIV reactivation” value in assay [1] is “approximately 50%”. Regarding `CCCc1cc(C)[nH]c(=O)c1CNC(=O)c1cc(-c2ccnc(N3CCN(C)CC3)c2)cc2c1cnn2C(C)C` [GSK343], the “induction of HIV expression, agent alone” value in assay [2] is on record as “failed to induce HIV expression; also recorded: could not effectively induce HIV expression; also recorded: no capacity to reactivate latent HIV by itself”. For `CCCCCC(=O)O[C@H]1C(C)=C[C@]23C(=O)[C@@H](C=C(CO)[C@@H](O)[C@]12O)[C@H]1[C@@H](C[C@H]3C)C1(C)C` [IngB, ingenol-3-hexanoate], the “expression of NF-κB/p65 protein, earlier report [24]” value in assay [3] was “increased expression of NF-κB/p65 protein”.
